Assay results published in PubChem BioAssay AID602398 (The Scripps Research Institute Molecular Screening Center, 2012).
Calls of active or inactive are those of the source. The rule behind the calls is not given here.

Target: Tyrosine-protein kinase ABL1 (Homo sapiens) + Ras and Rab interactor 1 (Homo sapiens) (UniProt P00519+Q13671)
Experiment: Rin1-Abl binding inhibitor potency, late-stage follow-up, biochemical, TR-FRET, dose response (AID 602398)

Sequence of Tyrosine-protein kinase ABL1 (Homo sapiens) + Ras and Rab interactor 1 (Homo sapiens) (P00519 whole entry, looked up): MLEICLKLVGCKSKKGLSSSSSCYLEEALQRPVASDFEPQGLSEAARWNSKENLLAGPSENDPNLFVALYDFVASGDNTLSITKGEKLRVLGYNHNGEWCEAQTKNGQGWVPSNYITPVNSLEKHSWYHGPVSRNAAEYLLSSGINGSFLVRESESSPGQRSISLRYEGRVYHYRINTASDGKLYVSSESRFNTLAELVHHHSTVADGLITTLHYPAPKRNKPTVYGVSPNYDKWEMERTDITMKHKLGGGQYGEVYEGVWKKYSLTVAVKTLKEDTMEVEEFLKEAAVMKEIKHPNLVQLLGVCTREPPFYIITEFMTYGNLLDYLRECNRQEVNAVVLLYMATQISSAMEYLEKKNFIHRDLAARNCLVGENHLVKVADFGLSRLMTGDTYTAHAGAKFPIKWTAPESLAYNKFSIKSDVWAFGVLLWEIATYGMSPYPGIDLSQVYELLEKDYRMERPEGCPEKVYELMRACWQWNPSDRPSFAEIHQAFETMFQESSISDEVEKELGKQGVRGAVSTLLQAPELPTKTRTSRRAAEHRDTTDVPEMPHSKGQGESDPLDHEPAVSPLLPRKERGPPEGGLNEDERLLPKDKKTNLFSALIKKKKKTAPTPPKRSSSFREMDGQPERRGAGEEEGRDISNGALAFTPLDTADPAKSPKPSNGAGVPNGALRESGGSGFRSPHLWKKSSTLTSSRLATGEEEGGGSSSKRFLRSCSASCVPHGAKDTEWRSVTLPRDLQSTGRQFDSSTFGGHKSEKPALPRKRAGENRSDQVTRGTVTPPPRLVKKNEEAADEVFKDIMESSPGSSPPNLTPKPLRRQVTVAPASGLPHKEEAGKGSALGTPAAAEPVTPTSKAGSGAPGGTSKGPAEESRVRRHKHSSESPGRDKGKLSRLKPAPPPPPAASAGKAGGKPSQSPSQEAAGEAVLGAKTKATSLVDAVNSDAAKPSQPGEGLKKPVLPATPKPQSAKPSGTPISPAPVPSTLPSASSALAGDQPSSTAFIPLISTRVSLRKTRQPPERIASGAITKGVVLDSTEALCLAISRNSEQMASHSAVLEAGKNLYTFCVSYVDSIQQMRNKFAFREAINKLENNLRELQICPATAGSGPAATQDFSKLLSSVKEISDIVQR
Sequence of Tyrosine-protein kinase ABL1 (Homo sapiens) + Ras and Rab interactor 1 (Homo sapiens) (Q13671 whole entry, looked up): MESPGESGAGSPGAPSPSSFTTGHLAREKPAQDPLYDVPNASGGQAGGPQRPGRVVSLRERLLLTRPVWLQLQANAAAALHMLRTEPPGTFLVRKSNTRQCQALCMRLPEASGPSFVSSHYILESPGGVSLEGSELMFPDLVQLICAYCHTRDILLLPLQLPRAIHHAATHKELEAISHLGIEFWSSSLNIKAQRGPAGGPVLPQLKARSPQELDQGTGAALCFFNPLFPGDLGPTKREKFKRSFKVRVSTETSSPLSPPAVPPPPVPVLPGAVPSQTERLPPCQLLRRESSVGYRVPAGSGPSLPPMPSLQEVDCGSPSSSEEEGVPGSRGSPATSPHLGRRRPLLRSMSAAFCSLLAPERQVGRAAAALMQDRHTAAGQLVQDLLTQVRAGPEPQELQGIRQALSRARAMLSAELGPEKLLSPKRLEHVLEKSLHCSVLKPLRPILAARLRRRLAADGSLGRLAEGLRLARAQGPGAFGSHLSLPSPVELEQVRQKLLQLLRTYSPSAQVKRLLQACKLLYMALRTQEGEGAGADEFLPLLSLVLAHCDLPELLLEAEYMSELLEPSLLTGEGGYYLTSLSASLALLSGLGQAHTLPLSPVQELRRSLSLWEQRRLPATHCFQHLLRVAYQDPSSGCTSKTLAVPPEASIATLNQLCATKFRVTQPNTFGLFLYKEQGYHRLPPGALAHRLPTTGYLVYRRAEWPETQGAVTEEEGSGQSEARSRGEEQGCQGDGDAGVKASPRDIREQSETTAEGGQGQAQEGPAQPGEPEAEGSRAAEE

**Q.** `CN(CCc1ccccc1)C(=O)c1ccc(NC(=O)Cc2ccc(NC(=O)C3CCN(C(=O)c4ccccc4)CC3)cc2)cc1` was tested. Which IC50 did it give?
**A.** Its IC50 is 8.52 µM.

**Q.** For `O=C(Cc1ccc(NC(=O)C2CCN(C(=O)C3CCCCC3)CC2)cc1)Nc1ccc(C(=O)N2CCOCC2)cc1`, which IC50 is on record?
**A.** The IC50 was “inactive”.

**Q.** Which IC50 does the source give for `CSc1ccccc1OCc1cc(C(=O)N2CCNC(=O)C2)no1` here?
**A.** Its IC50 is 5.94 µM.

**Q.** Which IC50 does the source give for `CC(=O)Nc1ccc(NC(=O)C2CCN(C(=O)c3cccs3)CC2)cc1` here?
**A.** The IC50 was 2.17 µM.

**Q.** For `Cc1c(C(=O)NCC(c2ccco2)N(C)C)oc2c(Cl)cccc12` (stereo not drawn), which IC50 is on record?
**A.** Its IC50 is 4.68 µM.

**Q.** How did the IC50 turn out when `CCOC(=O)N1CCN(C(=O)Nc2ccc(NC(=O)N3CCN(C(=O)OCC)CC3)cc2)CC1` was run?
**A.** Its IC50 is “inactive”.

**Q.** With `CN(C(=O)c1ccc(NC(=O)Cc2ccc(NC(=O)C3CCN(C(=O)c4ccccc4)CC3)cc2)cc1)C1CC1` as the compound, how does the IC50 read?
**A.** Its IC50 is 2.53 µM.

**Q.** For `CN(Cc1c(F)cccc1Cl)C(=O)CNC(=O)c1ccc2c(c1)OCO2`, which IC50 is on record?
**A.** The IC50 was 3.77 µM.

**Q.** How did the IC50 turn out when `COc1ccc2oc(C(=O)NCC(c3ccco3)N(C)C)c(C)c2c1` (stereo not drawn) was run?
**A.** Its IC50 is 5.19 µM.

**Q.** Which IC50 does the source give for `COc1cccc(CSc2nnc(CSc3nc4nc(C)cc(C)n4n3)s2)c1` here?
**A.** Its IC50 is 9.57 µM.

**Q.** With `O=c1cc(OCc2ccccc2)cc[nH]1` as the compound, how does the IC50 read?
**A.** The IC50 was 0.0161 µM.

**Q.** How did the IC50 turn out when `O=C(Cc1ccc(NC(=O)C2CCN(C(=O)c3ccccc3)CC2)cc1)Nc1ccc(C(=O)N2CCOCC2)cc1` was run?
**A.** The IC50 was “inactive”.

**Q.** `Cn1c(=O)c2c(nc(-n3ccnc3)n2Cc2ccc(Cl)cc2Cl)n(C)c1=O` was tested. Which IC50 did it give?
**A.** The IC50 was 4.31 µM.

**Q.** For `CCOC(=O)N1CCC(NC(=O)CCc2nc(C3=CCN(C)CC3)no2)CC1`, which IC50 is on record?
**A.** Its IC50 is 9.41 µM.

**Q.** How did the IC50 turn out when `CN(CCc1ccccc1)C(=O)c1ccc(NC(=O)Cc2ccc(NC(=O)C3CCN(C(=O)C4CCCC4)CC3)cc2)cc1` was run?
**A.** Its IC50 is 5.22 µM.

**Q.** For `O=C(Cc1ccc(NC(=O)C2CCN(C(=O)C3CCCC3)CC2)cc1)Nc1ccc(C(=O)N2CCOCC2)cc1`, which IC50 is on record?
**A.** Its IC50 is 4.37 µM.

**Q.** `N#Cc1ccccc1Sc1ccccc1C(=O)NCC(c1ccco1)N1CCCC1` (stereo not drawn) was tested. Which IC50 did it give?
**A.** Its IC50 is 4.08 µM.

**Q.** `COc1ccc(CCNc2cc(=O)[nH]c(N)n2)cc1` was tested. Which IC50 did it give?
**A.** The IC50 was 4.01 µM.
